Data published in patent publication US7041700B2, “Substituted benzopyran derivatives against arrhythmia” (Nissan Chemical Industries, Ltd., priority 2001, dated 2006).

Columns and labels:
Atrium = assay: Effects on the effective refractory period, atrium (anesthetized beagles, vagal nerve stimulation, S1-S2 extrastimulus); type: in vivo; details: 0.3 mg/kg intravenously, from 5 min after administration, basic cycle length 300 msec, bilateral vagal nerve stimulation, ERP after minus before drug
Protocol: (§1) Effects on the Effective Refractory Period
(§2) Beagles were anesthetized with pentobarbital sodium and thoracotomy was done along the median line under a respirator and the incision was made on the pericardium to expose the heart. ECG was recorded using bipolar electrodes attached to the surface of the right atrial free wall, right atrial auricle, and right ventricular free wall. The vagal nerves were stimulated using an electrostimulation device with Nichrome wires inserted into the vagal nerves in the neck bilaterally. The conditions for electrostimulation to the vagal nerves were set such that the RR intervals on ECG were prolonged by about 100 msec compared with those before the stimulation was started.
(§3) Atrial and ventricular effective refractory periods were determined by S1-S2 extrastimulus technique at basic cycle length of 300 msec during bilateral vagal nerve stimulation, using programmable electric stimulator. A train of 10 basic stimuli (S1) was followed by a premature extrastimulus (S2) at 2 times diastolic threshold.
(§4) For evaluation of drug effects, the atrial and ventricular effective refractory periods were determined before drug administration, then respective compound was administrated intravenously at the dose of 0.3 mg/kg, and the atrial and ventricular effective refactory periods were determined from 5 min after the administration.
(§5) The results were shown as the prolongation time on the atrial and ventricular effective refractory periods, i.e. [effective refractory period after drug administration]−[effective refactory period before drug administration] (msec).

Ventricle = assay: Effects on the effective refractory period, ventricle (anesthetized beagles, vagal nerve stimulation, S1-S2 extrastimulus); type: in vivo; details: 0.3 mg/kg intravenously, from 5 min after administration, basic cycle length 300 msec, bilateral vagal nerve stimulation, ERP after minus before drug
Protocol: as §1, §2, §3, §4, §5

| Structure (SMILES) | prolongation time on the effective refractory period (msec) Atrium (Atrium) [ms] | prolongation time on the effective refractory period (msec) Ventricle (Ventricle) [ms] |
| --- | --- | --- |
| Cc1ccc2c(c1)[C@H](NCCc1ccc(Cl)cc1)[C@@H](O)C(C)(C)O2 [compound 2] | 23 | 4 |
| CC1(C)Oc2ccc(C(N)=O)cc2[C@H](NCCc2ccccc2)[C@H]1O [compound 3] | 21 | 4 |
| CC1(C)Oc2ccc(C(N)=O)cc2[C@H](NCCc2ccc(F)cc2)[C@H]1O [compound 4] | 23 | -10 |
| CC1(C)Oc2cc([N+](=O)[O-])ccc2[C@H](NCCc2ccccc2)[C@H]1O [compound 6] | 36 | 9 |
